The target of experiment [1] is T1, NMDA (NR1/NR2A) receptors (Rattus norvegicus, UniProt P35439+Q00959).
T1 construct: expressed in transfected cells; host or cells: Xenopus laevis oocytes, injected with in vitro transcribed RNA (1:1), clones a gift from Dr. R. A. Harris
Nature of the experiment: Oocyte two-electrode voltage clamp, NMDA receptor currents. In kind it is cell-based. As to conditions: for NMDA % Direct Effect: drug response without receptor agonist, percent of control agonist peak, saturated drug, mean ± SEM, 5-6 oocytes; for NMDA Drug Response: saturated drug + agonist; for direct effect on NMDA receptors (in words): absence of glutamate and glycine agonist. The source says:
Methods: GABAA (α1β2γ2s) or NMDA (NR1/NR2A) receptors were expressed in oocytes and studied using standard two-electrode voltage clamp techniques. Hydrocarbons from 14 different organic functional groups were studied at saturated concentrations, and compounds within each group differed only by the carbon number at the ω-position or within a saturated ring. An effect on GABAA or NMDA receptors was defined as a 10% or greater reversible current change from baseline that was statistically different from zero.
Oocyte Collection and Receptor Expression. An ovary from tricaine-anesthetized Xenopus laevis frogs was surgically removed using a protocol approved by the Institutional Animal Care and Use Committee at the University of California, Davis. Following manual disruption of the ovarian lobule septae, the ovary was incubated in 0.2% Type I collagenase (Worthington Biochemical, Lakewood, N.J.) to defolliculate oocytes which were washed and stored in fresh and filtered modified Barth's solution composed of 88 mM NaCl, 1 mM KCl, 2.4 mM NaHCO3, 20 mM HEPES, 0.82 mM MgSO4, 0.33 mM Ca(NO3)2, 0.41 mM CaCl2, 5 mM sodium pyruvate, gentamycin, penicillin, streptomycin, and corrected to pH=7.4. All salts and antibiotics were A.C.S. grade (Fisher Scientific, Pittsburgh, Pa.).
Clones used were provided as a gift from Dr. R. A. Harris (University of Texas, Austin) and were sequenced and compared to references in the National Center for Biotechnology Information database to confirm the identity of each gene. GABAA receptors were expressed using clones for the human GABAA α1 and the rat GABAA β2 and γ2s subunits in pCIS-II vectors. […] In separate oocytes, glutamate receptors were expressed using rat NMDA NR1 clones in a pCDNA3 vector and rat NMDA NR2A clones in a Bluescript vector. RNA encoding each subunit was prepared using a commercial transcription kit (T7 mMessage mMachine, Ambion, Austin, Tex.) was mixed in a 1:1 ratio, and 1-10 ng of total RNA was injected into oocytes and studied 1-2 days later.
NMDA Receptor Electrophysiology Studies. […] Briefly, baseline perfusion solutions were the same as for GABAA with the substitution of equimolar BaCl2 for calcium salts and the addition of 0.1 mM EGTA; this constituted barium frog Ringer's solution (BaFR). Agonist solutions for NMDA studies also contained 0.1 mM glutamate (E) and 0.01 mM glycine (G) to constitute a BaFREG solution.
The syringe pump and perfusion chamber apparatus as well as the clamp holding potential and baseline-agonist exposure protocols were identical to that described for the GABAA studies. The same test compounds, concentrations, and preparative methods were used in NMDA voltage clamp studies as in the GABAA voltage clamp studies (Table 2).
Response Calculations and Data Analysis. Modulating drug responses were calculated as the percent of the control (baseline) peak as follows:
[formula] where ID and IB were the peak currents measured during agonist+drug and agonist baseline perfusions, respectively. When present, direct receptor activation by a drug was similarly calculated as a percent of the agonist response. […] A lack of receptor response (cut-off) was defined as a <10% change from baseline current that was statistically indistinguishable from zero using a two-tailed Student t-test.
On the technique in general: Two-electrode voltage clamp holds a large cell at a set potential and records current.

Experiment [2] concerns the target GABAA (α1β2γ2s) receptors (UniProt P14867+P18508+P63138). Nature of the experiment: Oocyte two-electrode voltage clamp, GABAA receptor currents. As to conditions: for GABAA Drug Response: saturated drug + agonist; for GABAA % Direct Effect: drug response without receptor agonist, percent of control agonist peak, saturated drug, mean ± SEM, 5-6 oocytes; for GABAA receptor modulation (in words): saturating aqueous concentration.
Protocol: GABAA receptors were expressed using clones for the human GABAA α1 and the rat GABAA β2 and γ2s subunits in pCIS-II vectors. […] These plasmid ratios ensured incorporation of the γ-subunit into expressed receptors, as confirmed via receptor potentiation to 10 μM chlordiazepoxide or insensitivity to 10 μM zinc chloride during co-application with GABA. In separate oocytes, glutamate receptors were expressed using rat NMDA NR1 clones in a pCDNA3 vector and rat NMDA NR2A clones in a Bluescript vector. RNA encoding each subunit was prepared using a commercial transcription kit (T7 mMessage mMachine, Ambion, Austin, Tex.) was mixed in a 1:1 ratio, and 1-10 ng of total RNA was injected into oocytes and studied 1-2 days later.
Oocytes were studied in a 250 μL linear-flow perfusion chamber with solutions administered by syringe pump at 1.5 ml/min with gastight glass syringes and Teflon tubing. Oocyte GABAA currents were studied using standard two-electrode voltage clamping techniques at a holding potential of 80 mV using a 250 μL channel linear-flow perfusion chamber with solutions administered by syringe pump at 1.5 mL/min.
After FR perfusion for 5 min, oocytes were exposed to 30 sec FR-GABA followed by another 5 min FR washout; this was repeated until stable GABAA-elicited peaks were obtained. Next, FR containing a saturated solution of the study drug (Table 2)—or for gaseous study compounds a vapor pressure equal to 90% of barometric pressure with balance oxygen—was used to perfuse the oocyte chamber for 2 min followed by perfusion with a FR-GABA solution containing the identical drug concentration for 30 sec.
[formula] where ID and IB were the peak currents measured during agonist+drug and agonist baseline perfusions, respectively. When present, direct receptor activation by a drug was similarly calculated as a percent of the agonist response. Average current responses for each drug and channel were described by mean±SD. A lack of receptor response (cut-off) was defined as a <10% change from baseline current that was statistically indistinguishable from zero using a two-tailed Student t-test.

Sequence of GABAA (α1β2γ2s) receptors (P14867 28-456): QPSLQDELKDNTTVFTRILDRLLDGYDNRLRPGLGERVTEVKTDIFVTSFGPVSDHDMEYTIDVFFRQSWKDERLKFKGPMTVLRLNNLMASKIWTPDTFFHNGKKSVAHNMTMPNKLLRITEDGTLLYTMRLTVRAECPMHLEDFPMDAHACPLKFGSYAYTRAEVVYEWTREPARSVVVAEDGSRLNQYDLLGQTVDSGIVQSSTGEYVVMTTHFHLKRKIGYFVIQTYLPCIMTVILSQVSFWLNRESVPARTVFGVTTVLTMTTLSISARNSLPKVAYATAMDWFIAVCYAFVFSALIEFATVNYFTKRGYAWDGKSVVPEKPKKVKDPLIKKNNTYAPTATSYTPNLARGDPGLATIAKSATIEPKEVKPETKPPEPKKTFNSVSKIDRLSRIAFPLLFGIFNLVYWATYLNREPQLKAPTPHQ
Sequence of GABAA (α1β2γ2s) receptors (P63138 25-474 limits assumed): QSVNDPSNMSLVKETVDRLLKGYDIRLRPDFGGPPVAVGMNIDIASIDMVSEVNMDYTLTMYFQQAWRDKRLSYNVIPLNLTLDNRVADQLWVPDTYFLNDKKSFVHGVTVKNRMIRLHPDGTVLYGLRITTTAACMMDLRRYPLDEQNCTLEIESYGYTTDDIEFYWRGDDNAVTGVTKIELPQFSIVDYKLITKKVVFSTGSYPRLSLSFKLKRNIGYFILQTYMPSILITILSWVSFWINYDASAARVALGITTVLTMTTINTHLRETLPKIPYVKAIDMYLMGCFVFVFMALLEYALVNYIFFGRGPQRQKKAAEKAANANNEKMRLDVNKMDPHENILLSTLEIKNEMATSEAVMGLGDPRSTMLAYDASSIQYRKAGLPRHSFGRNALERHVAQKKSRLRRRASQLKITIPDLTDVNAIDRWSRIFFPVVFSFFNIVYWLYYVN
Sequence of GABAA (α1β2γ2s) receptors (P18508 39-466): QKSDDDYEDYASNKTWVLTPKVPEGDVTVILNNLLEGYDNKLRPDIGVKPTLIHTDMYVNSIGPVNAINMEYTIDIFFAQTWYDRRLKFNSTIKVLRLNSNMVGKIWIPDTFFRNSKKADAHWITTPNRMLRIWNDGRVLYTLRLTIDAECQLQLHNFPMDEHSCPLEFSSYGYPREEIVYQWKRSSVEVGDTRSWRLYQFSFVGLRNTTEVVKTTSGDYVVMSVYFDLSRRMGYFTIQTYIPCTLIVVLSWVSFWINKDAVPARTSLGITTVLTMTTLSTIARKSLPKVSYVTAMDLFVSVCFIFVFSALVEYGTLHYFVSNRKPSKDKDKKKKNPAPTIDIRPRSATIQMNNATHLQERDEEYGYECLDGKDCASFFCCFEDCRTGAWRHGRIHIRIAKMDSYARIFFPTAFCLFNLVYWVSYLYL
T1 sequence (Q00959 23-1464, other chains not shown): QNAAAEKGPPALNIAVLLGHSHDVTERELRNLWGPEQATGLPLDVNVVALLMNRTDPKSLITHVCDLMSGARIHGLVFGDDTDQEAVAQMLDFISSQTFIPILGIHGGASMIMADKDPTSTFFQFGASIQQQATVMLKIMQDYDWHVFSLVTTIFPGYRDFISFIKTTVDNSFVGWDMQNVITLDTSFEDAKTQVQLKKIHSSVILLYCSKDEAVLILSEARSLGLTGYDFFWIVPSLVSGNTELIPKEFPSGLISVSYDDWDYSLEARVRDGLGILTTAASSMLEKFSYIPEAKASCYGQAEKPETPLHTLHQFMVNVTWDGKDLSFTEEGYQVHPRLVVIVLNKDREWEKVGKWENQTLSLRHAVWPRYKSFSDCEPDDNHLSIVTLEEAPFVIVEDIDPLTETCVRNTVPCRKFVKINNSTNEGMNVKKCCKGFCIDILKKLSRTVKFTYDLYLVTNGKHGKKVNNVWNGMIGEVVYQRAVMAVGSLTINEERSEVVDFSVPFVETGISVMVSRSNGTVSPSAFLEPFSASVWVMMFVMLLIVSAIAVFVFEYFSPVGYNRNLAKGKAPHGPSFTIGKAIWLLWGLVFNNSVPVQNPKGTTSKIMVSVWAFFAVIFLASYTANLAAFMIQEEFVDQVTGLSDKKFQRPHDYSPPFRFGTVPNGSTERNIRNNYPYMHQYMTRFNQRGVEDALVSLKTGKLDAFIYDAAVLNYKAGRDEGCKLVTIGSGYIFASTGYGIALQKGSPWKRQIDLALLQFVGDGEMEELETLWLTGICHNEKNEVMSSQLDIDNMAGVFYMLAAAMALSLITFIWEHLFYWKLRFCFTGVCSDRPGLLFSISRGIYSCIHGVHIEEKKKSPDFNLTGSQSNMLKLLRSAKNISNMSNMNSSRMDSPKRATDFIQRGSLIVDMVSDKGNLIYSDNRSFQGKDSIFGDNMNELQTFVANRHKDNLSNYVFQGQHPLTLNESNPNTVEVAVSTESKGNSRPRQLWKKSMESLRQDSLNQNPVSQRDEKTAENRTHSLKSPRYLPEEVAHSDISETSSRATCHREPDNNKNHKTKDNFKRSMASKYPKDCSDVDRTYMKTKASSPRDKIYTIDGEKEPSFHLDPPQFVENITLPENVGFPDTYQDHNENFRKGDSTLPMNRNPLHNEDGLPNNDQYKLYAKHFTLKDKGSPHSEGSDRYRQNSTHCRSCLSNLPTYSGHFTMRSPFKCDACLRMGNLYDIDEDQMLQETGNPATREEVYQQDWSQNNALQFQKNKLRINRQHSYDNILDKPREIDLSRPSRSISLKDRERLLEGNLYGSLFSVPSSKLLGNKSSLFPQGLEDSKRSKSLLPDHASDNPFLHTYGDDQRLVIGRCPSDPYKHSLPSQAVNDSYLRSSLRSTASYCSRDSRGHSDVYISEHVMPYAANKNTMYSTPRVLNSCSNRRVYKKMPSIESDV

As for `C1CCCC1` [cyclopentane], in experiment [1], the “NMDA % Direct Effect” value was “none”. In addition, the “GABAA Drug Response” value in experiment [2] was “+ (potentiation (+) for drug+agonist responses greater than the control agonist peak)”.

In the case of `CCCCCCCCCCCCCCCCCCN` [1-octadecanamine], the “NMDA % Direct Effect” value in experiment [1] is on record as “none”. Moreover, in experiment [2], the “GABAA % Direct Effect” value is “none” and the “GABAA Drug Response” value is reported as “+ (potentiation (+) for drug+agonist responses greater than the control agonist peak)”.

`CCCCCCS` [1-hexanethiol]: in experiment [1], the “NMDA % Direct Effect” value is reported as “none” and the “NMDA Drug Response” value is 0 (no response (0) for drug+agonist responses that differ by <10% from the control agonist peak). The “GABAA Drug Response” value in experiment [2] is reported as “+ (potentiation (+) for drug+agonist responses greater than the control agonist peak)”.

`CCCCCCCCSCC` [1-(ethylthio)-octane]: in experiment [1], the “NMDA % Direct Effect” value was “none” and the “NMDA Drug Response” value was 0 (no response (0) for drug+agonist responses that differ by <10% from the control agonist peak). Also, in experiment [2], the “GABAA % Direct Effect” value was “none” and the “GABAA Drug Response” value is “+ (potentiation (+) for drug+agonist responses greater than the control agonist peak)”.

As for `CCCCCCC(=O)OCC` [ethyl heptanoate], in experiment [1], the “NMDA % Direct Effect” value was “none”. In experiment [2], the “GABAA % Direct Effect” value was “none” and the “GABAA Drug Response” value is given as “+ (potentiation (+) for drug+agonist responses greater than the control agonist peak)”.

Turning to `CCCCCCCCCCCO` [1-undecanol], in experiment [1], the “NMDA % Direct Effect” value is reported as “none” and the “NMDA Drug Response” value is 0 (no response (0) for drug+agonist responses that differ by <10% from the control agonist peak). Moreover, in experiment [2], the “GABAA % Direct Effect” value is on record as “none” and the “GABAA Drug Response” value is reported as “+ (potentiation (+) for drug+agonist responses greater than the control agonist peak)”.

With `C1CCCCC1` [cyclohexane], in experiment [1], the “NMDA % Direct Effect” value was “none” and the “NMDA Drug Response” value is recorded as 0 (no response (0) for drug+agonist responses that differ by <10% from the control agonist peak). Also, in experiment [2], the “GABAA % Direct Effect” value is on record as “none” and the “GABAA Drug Response” value is reported as “+ (potentiation (+) for drug+agonist responses greater than the control agonist peak)”.

Regarding `C#CCCCCCC` [1-octyne], in experiment [1], the “NMDA % Direct Effect” value was “none” and the “NMDA Drug Response” value is on record as 0 (no response (0) for drug+agonist responses that differ by <10% from the control agonist peak). Also, in experiment [2], the “GABAA % Direct Effect” value was “none” and the “GABAA Drug Response” value was “+ (potentiation (+) for drug+agonist responses greater than the control agonist peak)”.

Regarding `CCc1cccc(CC)c1` [1,3-diethylbenzene], in experiment [1], the “NMDA % Direct Effect” value is “none” and the “NMDA Drug Response” value was 0 (no response (0) for drug+agonist responses that differ by <10% from the control agonist peak). In experiment [2], the “GABAA % Direct Effect” value is on record as “none” and the “GABAA Drug Response” value is listed as “+ (potentiation (+) for drug+agonist responses greater than the control agonist peak)”.

In the case of `CCCCCCCCCCC=O` [undecanal], in experiment [1], the “NMDA % Direct Effect” value is listed as “none” and the “NMDA Drug Response” value was 0 (no response (0) for drug+agonist responses that differ by <10% from the control agonist peak). In experiment [2], the “GABAA % Direct Effect” value is recorded as “none” and the “GABAA Drug Response” value was “+ (potentiation (+) for drug+agonist responses greater than the control agonist peak)”.

`CCCCCCOCCCCCC` [dihexylether]: in experiment [1], the “NMDA % Direct Effect” value is recorded as “none” and the “NMDA Drug Response” value is given as 0 (no response (0) for drug+agonist responses that differ by <10% from the control agonist peak). In experiment [2], the “GABAA % Direct Effect” value was “none” and the “GABAA Drug Response” value was “+ (potentiation (+) for drug+agonist responses greater than the control agonist peak)”.

Consider `C=CCCCC` [1-hexene], for which, in experiment [1], the “NMDA % Direct Effect” value was “none” and the “NMDA Drug Response” value is on record as 0 (no response (0) for drug+agonist responses that differ by <10% from the control agonist peak). In experiment [2], the “GABAA % Direct Effect” value was “none” and the “GABAA Drug Response” value is recorded as “+ (potentiation (+) for drug+agonist responses greater than the control agonist peak)”.

With `C#CCCCCC` [1-heptyne], in experiment [1], the “NMDA % Direct Effect” value is “none”. In addition, in experiment [2], the “GABAA % Direct Effect” value was “none” and the “GABAA Drug Response” value is “+ (potentiation (+) for drug+agonist responses greater than the control agonist peak)”.

On to `CCCCCCCCCC(=O)OCC` [ethyl decanoate], for which, in experiment [1], the “NMDA % Direct Effect” value is reported as “none” and the “NMDA Drug Response” value is listed as 0 (no response (0) for drug+agonist responses that differ by <10% from the control agonist peak). Further, in experiment [2], the “GABAA % Direct Effect” value is on record as “none” and the “GABAA Drug Response” value is given as “+ (potentiation (+) for drug+agonist responses greater than the control agonist peak)”.

Consider `C=CCCC` [1-pentene], for which the “NMDA % Direct Effect” value in experiment [1] was “none”. Further, in experiment [2], the “GABAA % Direct Effect” value is reported as 2 ± 3% and the “GABAA Drug Response” value is given as “+ (potentiation (+) for drug+agonist responses greater than the control agonist peak)”.

In the case of `CCCCCC` [hexane], in experiment [1], the “NMDA % Direct Effect” value is “none” and the “NMDA Drug Response” value is listed as 0 (no response (0) for drug+agonist responses that differ by <10% from the control agonist peak). Moreover, in experiment [2], the “GABAA % Direct Effect” value was “none” and the “GABAA Drug Response” value is “+ (potentiation (+) for drug+agonist responses greater than the control agonist peak)”.

In the case of `CCCCCCCCCCO` [1-decanol], the “NMDA % Direct Effect” value in experiment [1] is “none”. In addition, in experiment [2], the “GABAA % Direct Effect” value is recorded as “none” and the “GABAA Drug Response” value is reported as “+ (potentiation (+) for drug+agonist responses greater than the control agonist peak)”.

For `CCCCCCCCCCCCO` [1-dodecanol], in experiment [1], the “NMDA % Direct Effect” value is recorded as “none” and the “NMDA Drug Response” value is 0 (no response (0) for drug+agonist responses that differ by <10% from the control agonist peak). In experiment [2], the “GABAA % Direct Effect” value is recorded as “none” and the “GABAA Drug Response” value is “+ (potentiation (+) for drug+agonist responses greater than the control agonist peak)”.

As for `CCCC` [butane], the “NMDA % Direct Effect” value in experiment [1] is on record as “none”. Besides, the “NMDA receptor modulation (in words)” value in experiment [1] (saturating aqueous concentration) is recorded as “negatively modulates NMDA receptors”. Further, in experiment [2], the “GABAA % Direct Effect” value is given as “none”, the “GABAA Drug Response” value is given as “+ (potentiation (+) for drug+agonist responses greater than the control agonist peak)” and the “GABAA receptor modulation (in words)” value is recorded as “positively modulate GABAA receptors”.

In the case of `CCCCCCCCCCC(C)=O` [2-dodecanone], in experiment [1], the “NMDA % Direct Effect” value is listed as “none” and the “NMDA Drug Response” value is given as 0 (no response (0) for drug+agonist responses that differ by <10% from the control agonist peak). Also, in experiment [2], the “GABAA % Direct Effect” value is recorded as “none” and the “GABAA Drug Response” value is listed as “+ (potentiation (+) for drug+agonist responses greater than the control agonist peak)”.

Turning to `CCCCC` [pentane], in experiment [1], the “NMDA % Direct Effect” value is given as “none” and the “NMDA Drug Response” value was 0 (no response (0) for drug+agonist responses that differ by <10% from the control agonist peak). Besides, in experiment [2], the “GABAA % Direct Effect” value was “none”, the “GABAA Drug Response” value was “+ (potentiation (+) for drug+agonist responses greater than the control agonist peak)” and the “GABAA receptor modulation (in words)” value was “positively modulate GABAA receptors”.

For `CCCCCCCCF` [1-fluoroctane], in experiment [1], the “NMDA % Direct Effect” value is on record as “none” and the “NMDA Drug Response” value was 0 (no response (0) for drug+agonist responses that differ by <10% from the control agonist peak). Besides, in experiment [2], the “GABAA % Direct Effect” value is on record as “none” and the “GABAA Drug Response” value is “+ (potentiation (+) for drug+agonist responses greater than the control agonist peak)”.

As for `CN1CCOCC1` [4-methylmorpholine], the “direct effect on NMDA receptors (in words)” value in experiment [1] is “direct activation of NMDA receptors”.

Consider N-methylpiperadine, for which the “direct effect on NMDA receptors (in words)” value in experiment [1] was “direct activation of NMDA receptors”.

The values are drawn from patent publication US9757353B2, “Methods of inducing anesthesia” (THE REGENTS OF THE UNIVERSITY OF CALIFORNIA, priority 2012, dated 2017).
